Source: PMC3904261 (British Journal of Pharmacology, 2013)
Each block holds one molecule with its values, some of them ahead of it. Bridge positions count the residues as written; N and C are the ends. Ends that are not written are not given here.

Columns and labels:
[1] = target: T1, AMY1(a) receptor (Homo sapiens, UniProt O60894+P30988); assay: cAMP production in Cos 7 cells via the AMY1(a) receptor; format: cell-based; details: AlphaScreen, means ± SEM, n = 3–6
T1 construct: HA; expressed in transfected cells; host or cells: Cos 7
Protocol: SK-N-MC cells were grown in DMEM/F12 medium supplemented with 10% fetal calf serum as described previously (Poyner et al., [1998]). […] Production of cAMP in SK-N-MC cells for all analogues except [[…]]-hαCGRP was by a radioreceptor assay, as described previously (Poyner et al., [1998]). […] For [[…]]-hαCGRP, a different clone of SK-N-MC cells was used and cAMP production was measured via AlphaScreen (Perkin Elmer, Wellesley, MA, USA), as described previously ([…] et al., [2010]). This assay was also used to investigate the action of all derivatives at the AMY1(a) receptor and other experiments using Cos 7 cells. […] GraphPad Prism 5.00 or 6.00 (GraphPad Software Inc., San Diego, CA, USA) was used for data fitting. Concentration-response curves were fitted to a sigmoidal function with Hill slope constrained to unity to obtain pEC50 and maximum responses (Emax) values. Displacement curves were analysed to obtain pIC50 values. Schild plots were fitted by linear regression to obtain slope and intercepts. pEC50 and pIC50 values were compared with that of human αCGRP using Dunnett's test with either a normal or repeated measures one-way ANOVA, as appropriate.

[2] = target: T2, CGRP receptor (Homo sapiens, UniProt O60894+Q16602); assay: Displacement of 125I-CGRP binding to SK-N-MC cell membranes; design: relative expression levels of the receptors (endogenous vs. overexpressed); endogenous in cells; host or cells: SK-N-MC cells (ECACC clone; ATCC clone for [Cys5]-CGRP); details: Binding (SK-N-MC) pKi CGRP analogue, 125I-CGRP displacement, SK-N-MC cell membranes; means ± SEM, n = 3–6; [Cys5] on a different batch of SK-N-MC cells
Protocol: (§1) GraphPad Prism 5.00 or 6.00 (GraphPad Software Inc., San Diego, CA, USA) was used for data fitting. Concentration–response curves were fitted to a sigmoidal function with Hill slope constrained to unity to obtain pEC50 and maximum responses (Emax) values. Displacement curves were analysed to obtain pIC50 values. Schild plots were fitted by linear regression to obtain slope and intercepts. pEC50 and pIC50 values were compared with that of human αCGRP using Dunnett's test with either a normal or repeated measures one-way ANOVA, as appropriate.

[3] = target: T2, CGRP receptor; assay: β-arrestin 2 translocation in CHO-K1 cells (PathHunter eXpress); format: cell-based; design: host or cells: CHO-K1 (PathHunter eXpress β-arrestin kit)
Protocol: as §1

[4] = target: T2, CGRP receptor; assay: cAMP production in SK-N-MC cells; format: cell-based; design: relative expression levels of the receptors (endogenous vs. overexpressed); endogenous in cells; host or cells: SK-N-MC cells (ECACC clone; ATCC clone for [Cys5]-CGRP); details: radioreceptor assay, approx. 10 min, means ± SEM, n = 3–6
Protocol: Production of cAMP in SK-N-MC cells for all analogues except [[…]]-hαCGRP was by a radioreceptor assay, as described previously (Poyner et al., [1998]). […] For [[…]]-hαCGRP, a different clone of SK-N-MC cells was used and cAMP production was measured via AlphaScreen (Perkin Elmer, Wellesley, MA, USA), as described previously ([…] et al., [2010]). This assay was also used to investigate the action of all derivatives at the AMY1(a) receptor and other experiments using Cos 7 cells. […] GraphPad Prism 5.00 or 6.00 (GraphPad Software Inc., San Diego, CA, USA) was used for data fitting. Concentration-response curves were fitted to a sigmoidal function with Hill slope constrained to unity to obtain pEC50 and maximum responses (Emax) values. Displacement curves were analysed to obtain pIC50 values. Schild plots were fitted by linear regression to obtain slope and intercepts. pEC50 and pIC50 values were compared with that of human αCGRP using Dunnett's test with either a normal or repeated measures one-way ANOVA, as appropriate.

[5] = target: AMY_(1(a)) receptor (human HA-tagged CT (a) receptor with human myc-tagged RAMP1) (human) (UniProt O60894)
[6] = target: T3, CGRP receptor (calcitonin receptor-like receptor in complex with receptor activity-modifying protein 1) (human (endogenous in SK-N-MC), UniProt Q16602 23-461; O60894 27-148); assay: radioligand binding; displacement of ^125I-CGRP from SK-N-MC cell membranes by unlabelled peptides, microcentrifugation-based binding assay; [Cys^5]-CGRP and its control on another batch of SK-N-MC cells; details: one partner purified
[7] = target: T3, CGRP receptor (calcitonin receptor-like …); assay: cell-based or functional assay
[8] = 2 h stimulation, means ± SEM, n = 3

Chain of AMY_(1(a)) receptor (human HA-tagged CT (a) receptor with human myc-tagged RAMP1) (human) (O60894 whole entry, looked up): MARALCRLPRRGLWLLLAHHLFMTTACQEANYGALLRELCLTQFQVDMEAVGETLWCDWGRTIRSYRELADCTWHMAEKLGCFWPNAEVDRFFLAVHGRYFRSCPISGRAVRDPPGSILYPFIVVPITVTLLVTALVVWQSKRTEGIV
T1 sequence (P30988 25-474): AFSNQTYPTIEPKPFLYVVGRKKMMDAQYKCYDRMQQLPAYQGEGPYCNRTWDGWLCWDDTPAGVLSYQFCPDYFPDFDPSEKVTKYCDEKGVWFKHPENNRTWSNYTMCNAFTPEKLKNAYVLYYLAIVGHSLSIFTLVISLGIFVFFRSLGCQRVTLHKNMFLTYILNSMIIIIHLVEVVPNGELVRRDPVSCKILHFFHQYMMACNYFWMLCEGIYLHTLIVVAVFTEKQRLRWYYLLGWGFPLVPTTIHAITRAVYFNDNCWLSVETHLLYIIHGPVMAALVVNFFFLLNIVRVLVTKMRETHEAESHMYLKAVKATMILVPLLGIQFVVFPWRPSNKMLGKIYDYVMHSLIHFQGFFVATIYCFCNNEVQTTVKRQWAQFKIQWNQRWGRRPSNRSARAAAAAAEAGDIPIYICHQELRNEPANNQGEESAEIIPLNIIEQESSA
T1 sequence (O60894 27-148): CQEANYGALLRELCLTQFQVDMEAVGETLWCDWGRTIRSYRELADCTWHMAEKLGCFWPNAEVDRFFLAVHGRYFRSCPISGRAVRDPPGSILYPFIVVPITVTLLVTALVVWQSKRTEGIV
T2 sequence (Q16602 23-461): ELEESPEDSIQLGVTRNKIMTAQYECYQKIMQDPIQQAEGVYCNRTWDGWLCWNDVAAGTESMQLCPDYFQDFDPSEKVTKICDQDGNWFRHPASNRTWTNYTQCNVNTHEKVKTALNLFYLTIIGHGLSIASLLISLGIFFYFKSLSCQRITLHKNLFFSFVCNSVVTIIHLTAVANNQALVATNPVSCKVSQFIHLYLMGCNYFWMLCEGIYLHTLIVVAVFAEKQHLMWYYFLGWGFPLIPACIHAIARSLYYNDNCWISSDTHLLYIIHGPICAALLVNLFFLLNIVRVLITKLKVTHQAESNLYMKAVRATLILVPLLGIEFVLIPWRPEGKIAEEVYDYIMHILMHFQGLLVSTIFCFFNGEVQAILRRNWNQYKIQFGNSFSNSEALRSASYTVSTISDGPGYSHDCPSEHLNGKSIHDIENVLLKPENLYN
T2 sequence (O60894 27-148): as the sequence (O60894 27-148) above
T3 sequence (Q16602 23-461, chain 1 of 2): as the sequence (Q16602 23-461) above
T3 sequence (O60894 27-148, chain 2 of 2): as the sequence (O60894 27-148) above

AMY1(a) receptor-stimulated cAMP pEC50 CGRP analogue [1]: Undetectable
Ki [2]: 17.4 nM
β-Arrestin (CHO-K1) pEC50 CGRP analogue [3, 8]: Undetectable
cAMP (SK-N-MC) pEC50 CGRP analogue [4]: Undetectable
Molecule: CC(C)C[C@H](NC(=O)CNC(=O)[C@H](C)NC(=O)[C@H](CC(C)C)NC(=O)[C@H](CCCNC(=N)N)NC(=O)[C@H](Cc1c[nH]cn1)NC(=O)[C@@H](NC(=O)[C@@H](NC(=O)[C@@H]1CSSC[C@H](NC(=O)[C@H](C)N)C(=O)N[C@@H](CC(=O)O)C(=O)N[C@@H]([C@@H](C)O)C(=O)N[C@@H](C)C(=O)N[C@@H](CCCCN)C(=O)N1)C(C)C)[C@@H](C)O)C(=O)N[C@@H](CC(C)C)C(=O)N[C@@H](CO)C(=O)N[C@@H](CCCNC(=N)N)C(=O)N[C@@H](CO)C(=O)NCC(=O)NCC(=O)N[C@H](C(=O)N[C@H](C(=O)N[C@@H](CCCCN)C(=O)N[C@@H](CC(N)=O)C(=O)N[C@@H](CC(N)=O)C(=O)N[C@@H](Cc1ccccc1)C(=O)N[C@H](C(=O)N1CCC[C@H]1C(=O)N[C@H](C(=O)N[C@@H](CC(N)=O)C(=O)N[C@H](C(=O)NCC(=O)N[C@@H](CO)C(=O)N[C@@H](CCCCN)C(=O)N[C@@H](C)C(=O)N[C@@H](Cc1ccccc1)C(N)=O)C(C)C)[C@@H](C)O)C(C)C)C(C)C)C(C)C [[Lys^6]]

AMY1(a) receptor-stimulated cAMP pEC50 CGRP analogue [1]: Undetectable
Ki [2]: 31.6 nM
β-Arrestin (CHO-K1) pEC50 CGRP analogue [3, 8]: Undetectable
cAMP (SK-N-MC) pEC50 CGRP analogue [4]: Undetectable
Molecule: CC(C)C[C@H](NC(=O)CNC(=O)[C@H](C)NC(=O)[C@H](CC(C)C)NC(=O)[C@H](CCCNC(=N)N)NC(=O)[C@H](Cc1c[nH]cn1)NC(=O)[C@@H](NC(=O)[C@@H](NC(=O)[C@@H]1CSSC[C@H](NC(=O)[C@H](C)N)C(=O)N[C@@H](CC(=O)O)C(=O)N[C@@H]([C@@H](C)O)C(=O)N[C@@H](C)C(=O)N[C@@H](CC(=O)O)C(=O)N1)C(C)C)[C@@H](C)O)C(=O)N[C@@H](CC(C)C)C(=O)N[C@@H](CO)C(=O)N[C@@H](CCCNC(=N)N)C(=O)N[C@@H](CO)C(=O)NCC(=O)NCC(=O)N[C@H](C(=O)N[C@H](C(=O)N[C@@H](CCCCN)C(=O)N[C@@H](CC(N)=O)C(=O)N[C@@H](CC(N)=O)C(=O)N[C@@H](Cc1ccccc1)C(=O)N[C@H](C(=O)N1CCC[C@H]1C(=O)N[C@H](C(=O)N[C@@H](CC(N)=O)C(=O)N[C@H](C(=O)NCC(=O)N[C@@H](CO)C(=O)N[C@@H](CCCCN)C(=O)N[C@@H](C)C(=O)N[C@@H](Cc1ccccc1)C(N)=O)C(C)C)[C@@H](C)O)C(C)C)C(C)C)C(C)C [[Asp^6]]

EC50 ([1]; AMY1(a) receptor-stimulated cAMP pEC50 CGRP analogue): 0.562 nM
AMY1(a) receptor-stimulated cAMP Emax (% CGRP) CGRP analogue [1]: 76 ± 19 % CGRP
Ki [2]: 0.759 nM
β-Arrestin (CHO-K1) Emax (% CGRP) CGRP analogue [3, 8]: 57.3 ± 4.8 % CGRP
Emax ([3]; CHO-K1, CHO-K1 cells, compared with CGRP, read-out: reduction of Emax, β-arrestin 2 translocation): 40%
EC50 ([3]; β-Arrestin (CHO-K1) pEC50 CGRP analogue, 2 h stimulation, means ± SEM, n = 3): 8.51 nM
EC50 ([4]; cAMP (SK-N-MC) pEC50 CGRP analogue): 53.7 nM
cAMP (SK-N-MC) Emax (% CGRP) CGRP analogue [4]: 100 ± 10 % CGRP
Molecule: CC(C)C[C@H](NC(=O)CNC(=O)[C@H](C)NC(=O)[C@H](CC(C)C)NC(=O)[C@H](CCCNC(=N)N)NC(=O)[C@H](Cc1c[nH]cn1)NC(=O)[C@@H](NC(=O)[C@@H](NC(=O)[C@@H]1CSSC[C@H](NC(=O)[C@H](C)N)C(=O)N[C@@H](CC(=O)O)C(=O)N[C@@H]([C@@H](C)O)C(=O)N[C@@H](C)C(=O)N[C@@H](CO)C(=O)N1)C(C)C)[C@@H](C)O)C(=O)N[C@@H](CC(C)C)C(=O)N[C@@H](CO)C(=O)N[C@@H](CCCNC(=N)N)C(=O)N[C@@H](CO)C(=O)NCC(=O)NCC(=O)N[C@H](C(=O)N[C@H](C(=O)N[C@@H](CCCCN)C(=O)N[C@@H](CC(N)=O)C(=O)N[C@@H](CC(N)=O)C(=O)N[C@@H](Cc1ccccc1)C(=O)N[C@H](C(=O)N1CCC[C@H]1C(=O)N[C@H](C(=O)N[C@@H](CC(N)=O)C(=O)N[C@H](C(=O)NCC(=O)N[C@@H](CO)C(=O)N[C@@H](CCCCN)C(=O)N[C@@H](C)C(=O)N[C@@H](Cc1ccccc1)C(N)=O)C(C)C)[C@@H](C)O)C(C)C)C(C)C)C(C)C [[Ser^6]]

Emax (% CGRP), cAMP production in Cos 7 cells with the AMY (1(a)) receptor [5]: 108 % CGRP
pEC50, cAMP production in Cos 7 cells with the AMY (1(a)) receptor [5]: 8.9
pKi [6]: 9.54
Emax (% CGRP), cAMP production in SK-N-MC cells [7]: 116 % CGRP
Emax (% CGRP), β-arrestin 2 translocation in CHO-K1 cells expressing the human CGRP receptor [7]: 95 % CGRP
pEC50, cAMP production in SK-N-MC cells [7]: 8.27
pEC50, β-arrestin 2 translocation in CHO-K1 cells expressing the human CGRP receptor [7]: 8.43
B1: [Cys^3]-CGRP (peptide)
chain: ACCTATCVTHRLAGLLSRSGGVVKNNFVPTNVGSKAF-NH2
modifications: disulfide 2-7; N-terminus assumed
SMILES: CC(C)C[C@H](NC(=O)CNC(=O)[C@H](C)NC(=O)[C@H](CC(C)C)NC(=O)[C@H](CCCNC(=N)N)NC(=O)[C@H](Cc1c[nH]cn1)NC(=O)[C@@H](NC(=O)[C@@H](NC(=O)[C@@H]1CSSC[C@H](NC(=O)[C@H](C)N)C(=O)N[C@@H](CS)C(=O)N[C@@H]([C@@H](C)O)C(=O)N[C@@H](C)C(=O)N[C@@H]([C@@H](C)O)C(=O)N1)C(C)C)[C@@H](C)O)C(=O)N[C@@H](CC(C)C)C(=O)N[C@@H](CO)C(=O)N[C@@H](CCCNC(=N)N)C(=O)N[C@@H](CO)C(=O)NCC(=O)NCC(=O)N[C@H](C(=O)N[C@H](C(=O)N[C@@H](CCCCN)C(=O)N[C@@H](CC(N)=O)C(=O)N[C@@H](CC(N)=O)C(=O)N[C@@H](Cc1ccccc1)C(=O)N[C@H](C(=O)N1CCC[C@H]1C(=O)N[C@H](C(=O)N[C@@H](CC(N)=O)C(=O)N[C@H](C(=O)NCC(=O)N[C@@H](CO)C(=O)N[C@@H](CCCCN)C(=O)N[C@@H](C)C(=O)N[C@@H](Cc1ccccc1)C(N)=O)C(C)C)[C@@H](C)O)C(C)C)C(C)C)C(C)C

Emax (% CGRP), cAMP production in Cos 7 cells with the AMY (1(a)) receptor [5]: 76 % CGRP
pEC50, cAMP production in Cos 7 cells with the AMY (1(a)) receptor [5]: 9.25
pKi [6]: 9.12
Emax (% CGRP), cAMP production in SK-N-MC cells [7]: 100 % CGRP
Emax (% CGRP), β-arrestin 2 translocation in CHO-K1 cells expressing the human CGRP receptor [7]: 57.3 % CGRP
pEC50, cAMP production in SK-N-MC cells [7]: 7.27
pEC50, β-arrestin 2 translocation in CHO-K1 cells expressing the human CGRP receptor [7]: 8.07
Molecule: ACDTASCVTHRLAGLLSRSGGVVKNNFVPTNVGSKAF-NH2 (disulfide 2-7) [[Ser^6]-CGRP]
